Experimental data from patent publication US20120100616A1, “METHOD OF DOUBLE CROSSOVER HOMOLOGOUS REC[…] CLOSTRIDIA” (THE UNIVERSITY OF NOTTINGHAM, priority 2009, published 2012).

Columns and labels:
[1] = system: C. difficile cells harbouring the codA cassette; assay: functionality testing of codA cassette for counter selection on minimal medium with FC; assay type: cell-based; settings: 100 μg/ml FC, modified minimal medium, codA cassette on pMTL960 plasmid, FIG. 4
From the text: (§1) The codA expression cassette was isolated from the vector used by Fox et al., Gene Therapy. (1996) 3:173-178 and cloned into pMTL960. This plasmid was used to test the functionality of the codA gene in E. coli and C. difficile.

[2] = system: E. coli harbouring the codA construct; assay: functionality testing of codA gene in E. coli with and without FC; assay type: cell-based; settings: codA cassette on pMTL960 plasmid, with vs without FC
From the text: as §1

Nc1nc(=O)[nH]cc1F [FC, 5-fluorocytosine]
growth of cells expressing codA on minimal medium containing FC [1]: did not grow
growth of E. coli carrying the codA construct in presence of FC [2]: permitting growth in the absence of FC but not in the presence of FC
